Read-outs that look alike come from different tables or passages of the source. Numbered stars: 1 amine (or outer) side, 2 acyl side, 3 side chain; on linkers, the order of the positions; unused ones are H or OH. Square brackets hold non-standard residues; d marks the D form. Side chains are listed from the residue outwards. Peptide text beside a SMILES is read from it. * marks the point of attachment. C20 diacid = O=C(O)CCCCCCCCCCCCCCCCCCC(=O)*; C18 diacid = O=C(O)CCCCCCCCCCCCCCCCC(=O)*; C16 diacid = O=C(O)CCCCCCCCCCCCCCC(=O)*; γGlu = O=C(O)[C@H](CCC(=O)[*:2])N[*:1]; Met(O2) = CS(=O)(=O)CC[C@H](N)C(=O)O; αMeD = C[C@](N)(CC(=O)O)C(=O)O; αMeS = C[C@](N)(CO)C(=O)O; AEEA = NCCOCCOCC(=O)O; Aib = CC(C)(N)C(=O)O
Assays:
human GCGR = molecular target: T1, human GCGR (Homo sapiens, UniProt P47871); experiment: cAMP activity assay at the Glucagon receptor (GCGR); format: cell-based; settings: for hGCGR/hGLP1R (hTone): ratio of GCGR EC50 to GLP1R EC50
T1 construct: expressed in transfected cells; growth medium holds Blasticidin and Hygromycin
T1 sequence (P47871 26-477): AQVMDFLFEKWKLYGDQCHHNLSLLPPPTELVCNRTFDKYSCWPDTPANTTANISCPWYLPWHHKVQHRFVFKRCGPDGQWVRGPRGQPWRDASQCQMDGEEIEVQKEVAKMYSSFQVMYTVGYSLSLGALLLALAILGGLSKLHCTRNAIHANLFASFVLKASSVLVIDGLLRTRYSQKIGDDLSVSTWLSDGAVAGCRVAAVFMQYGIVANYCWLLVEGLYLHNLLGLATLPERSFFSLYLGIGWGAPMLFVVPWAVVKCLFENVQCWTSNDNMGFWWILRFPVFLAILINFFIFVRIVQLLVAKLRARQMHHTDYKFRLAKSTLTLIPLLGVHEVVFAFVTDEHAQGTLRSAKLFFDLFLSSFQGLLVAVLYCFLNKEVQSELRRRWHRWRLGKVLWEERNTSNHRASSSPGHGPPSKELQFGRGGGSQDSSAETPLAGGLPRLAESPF
Summary of the method: (§1)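 Peptides serially diluted from DMSO (10 points) and added to frozen-stock cells bearing human GLP1R (10,000 cells/well) or GCGR (30,000 cells/well), 1 h at RT, dark. EC50 by four-parameter logistic fit of HitHunter cAMPXS luminescence, read following overnight RT incubation.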

human GLP1R = molecular target: T2, human GLP1R (Homo sapiens, UniProt P43220); experiment: cAMP activity assay at the GLP-1 receptor (GLP1R); format: cell-based
T2 construct: expressed in transfected cells; growth medium holds Blasticidin and Hygromycin
T2 sequence (P43220 24-463): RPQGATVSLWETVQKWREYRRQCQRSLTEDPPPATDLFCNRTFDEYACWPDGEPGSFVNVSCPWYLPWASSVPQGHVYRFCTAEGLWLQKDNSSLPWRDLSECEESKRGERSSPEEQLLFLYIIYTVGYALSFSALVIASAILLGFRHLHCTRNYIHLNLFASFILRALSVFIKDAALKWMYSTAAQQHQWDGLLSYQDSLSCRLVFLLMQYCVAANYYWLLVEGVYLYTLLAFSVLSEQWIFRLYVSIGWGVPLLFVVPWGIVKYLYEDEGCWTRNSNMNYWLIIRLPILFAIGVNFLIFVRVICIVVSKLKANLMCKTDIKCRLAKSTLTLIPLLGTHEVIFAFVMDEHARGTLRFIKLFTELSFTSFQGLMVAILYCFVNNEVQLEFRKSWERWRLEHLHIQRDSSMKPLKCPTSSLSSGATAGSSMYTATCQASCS
Summary of the method: as §1

[1] = cells expressing human GCGR, cAMP production, buffer with or without 20% human serum (not stated which), read-out: GCGR EC50 human
[2] = summary statement: EC50 at each of the glucagon and GLP-1 receptors, read-out: EC50 at the glucagon receptor
[3] = summary statement: EC50 at each of the glucagon and GLP-1 receptors, read-out: EC50 at the GLP-1 receptor
[4] = cells expressing human GLP1R, cAMP production, buffer with or without 20% human serum (not stated which), read-out: GLP1R EC50 human

| SMILES | EC50 (human GCGR; [1]) | hGCGR/hGLP1R (hTone) (human GCGR) | EC50 (human GCGR; [2]) | EC50 (human GLP1R; [3]) | EC50 (human GLP1R; [4]) |
| --- | --- | --- | --- | --- | --- |
| CC(C)C[C@H](NC(=O)[C@H](Cc1c[nH]c2ccccc12)NC(=O)[C@H](CCCCNC(=O)COCCOCCNC(=O)COCCOCCNC(=O)CC[C@H](NC(=O)CCCCCCCCCCCCCCCCCCC(=O)O)C(=O)O)NC(=O)[C@@H](NC(=O)[C@H](Cc1ccccc1)NC(=O)[C@H](CC(=O)O)NC(=O)[C@H](CCC(N)=O)NC(=O)[C@H](C)NC(=O)[C@H](C)NC(=O)[C@H](CCCNC(=N)N)NC(=O)C(C)(C)NC(=O)[C@H](CC(=O)O)NC(=O)[C@H](CC(C)C)NC(=O)[C@H](Cc1ccc(O)cc1)NC(=O)[C@H](CCCCN)NC(=O)[C@H](CO)NC(=O)[C@H](Cc1ccc(O)cc1)NC(=O)[C@H](CC(=O)O)NC(=O)[C@H](CO)NC(=O)[C@@H](NC(=O)[C@H](Cc1ccccc1)NC(=O)[C@@H](NC(=O)CNC(=O)[C@H](CCC(N)=O)NC(=O)C(C)(C)NC(=O)[C@@H](N)Cc1c[nH]cn1)[C@@H](C)O)[C@@H](C)O)C(C)C)C(=O)N[C@@H](CCS(C)(=O)=O)C(=O)N[C@@H](CC(=O)O)C(=O)N[C@H](C(N)=O)[C@@H](C)O [TP576] (H-H[Aib]QGTFTSDYSKYLD[Aib]RAAQDFVK([AEEA-AEEA-γGlu-C20 diacid])WL[Met(O2)]DT-NH2; N-terminus assumed) | 1.45 nM | 0.8 | < 5 nM | < 5 nM | – |
| CC(C)C[C@H](NC(=O)[C@H](Cc1ccc(O)cc1)NC(=O)[C@H](CCCCN)NC(=O)[C@H](CO)NC(=O)[C@H](Cc1ccc(O)cc1)NC(=O)[C@H](CC(=O)O)NC(=O)[C@H](CO)NC(=O)[C@@H](NC(=O)[C@H](Cc1ccccc1)NC(=O)[C@@H](NC(=O)CNC(=O)[C@H](CCC(N)=O)NC(=O)C(C)(C)NC(=O)[C@@H](N)Cc1c[nH]cn1)[C@@H](C)O)[C@@H](C)O)C(=O)N[C@@H](CC(=O)O)C(=O)N[C@@H](C)C(=O)N[C@@H](CCCNC(=N)N)C(=O)N[C@@H](C)C(=O)N[C@@H](C)C(=O)N[C@@H](CCCCNC(=O)COCCOCCNC(=O)CC[C@H](NC(=O)CCCCCCCCCCCCCCC(=O)O)C(=O)O)C(=O)N[C@@H](CC(=O)O)C(=O)N[C@@H](Cc1ccccc1)C(=O)N[C@H](C(=O)N[C@@H](CCC(N)=O)C(=O)N[C@@H](Cc1c[nH]c2ccccc12)C(=O)N[C@@H](CC(C)C)C(=O)N[C@@H](CCS(C)(=O)=O)C(=O)N[C@@](C)(CC(=O)O)C(=O)N[C@H](C(N)=O)[C@@H](C)O)C(C)C [TP627] (H-H[Aib]QGTFTSDYSKYLDARAAK([AEEA-γGlu-C16 diacid])DFVQWL[Met(O2)][αMeD]T-NH2; N-terminus assumed) | 0.14 nM | 0.6 | < 5 nM | < 5 nM | – |
| CC(C)C[C@H](NC(=O)[C@H](CCCCN)NC(=O)[C@H](CCCCN)NC(=O)[C@H](CO)NC(=O)[C@H](Cc1ccc(O)cc1)NC(=O)[C@H](CCC(=O)O)NC(=O)[C@H](CO)NC(=O)[C@@H](NC(=O)[C@H](Cc1ccccc1)NC(=O)[C@@H](NC(=O)CNC(=O)[C@H](CCC(N)=O)NC(=O)C(C)(C)NC(=O)[C@@H](N)Cc1c[nH]cn1)[C@@H](C)O)[C@@H](C)O)C(=O)N[C@@H](CC(=O)O)C(=O)N[C@@H](C)C(=O)N[C@@H](CCCNC(=N)N)C(=O)N[C@@H](C)C(=O)N[C@@H](C)C(=O)N[C@@H](CCC(N)=O)C(=O)N[C@@H](CC(=O)O)C(=O)N[C@@H](Cc1ccccc1)C(=O)N[C@H](C(=O)N[C@@H](CCCCNC(=O)COCCOCCNC(=O)COCCOCCNC(=O)CC[C@H](NC(=O)CCCCCCCCCCCCCCCCC(=O)O)C(=O)O)C(=O)N[C@@H](Cc1c[nH]c2ccccc12)C(=O)N[C@@H](CC(C)C)C(=O)N[C@@H](CCS(C)(=O)=O)C(=O)N[C@@H](CC(=O)O)C(=O)N[C@H](C(N)=O)[C@@H](C)O)C(C)C [TP699] (H-H[Aib]QGTFTSEYSKKLDARAAQDFVK([AEEA-AEEA-γGlu-C18 diacid])WL[Met(O2)]DT-NH2) | > 19.8 nM | – | – | – | > 19.8 nM |
| CC(C)C[C@H](NC(=O)[C@H](Cc1ccc(O)cc1)NC(=O)[C@H](CCCCN)NC(=O)[C@H](CO)NC(=O)[C@H](Cc1ccc(O)cc1)NC(=O)[C@H](CC(=O)O)NC(=O)[C@H](CO)NC(=O)[C@@H](NC(=O)[C@H](Cc1ccccc1)NC(=O)[C@@H](NC(=O)CNC(=O)[C@H](CCC(N)=O)NC(=O)C(C)(C)NC(=O)[C@@H](N)Cc1c[nH]cn1)[C@@H](C)O)[C@@H](C)O)C(=O)N[C@@H](CC(=O)O)C(=O)N[C@@H](C)C(=O)N[C@@H](CCCNC(=N)N)C(=O)N[C@@H](C)C(=O)N[C@@H](C)C(=O)N[C@@H](CCCCNC(=O)COCCOCCNC(=O)COCCOCCNC(=O)CC[C@H](NC(=O)CCCCCCCCCCCCCCCCC(=O)O)C(=O)O)C(=O)N[C@@H](CCC(=O)O)C(=O)N[C@@H](Cc1ccccc1)C(=O)N[C@H](C(=O)N[C@@H](CCC(N)=O)C(=O)N[C@@H](Cc1c[nH]c2ccccc12)C(=O)N[C@@H](CC(C)C)C(=O)N[C@@H](CCS(C)(=O)=O)C(=O)N[C@@H](CC(=O)O)C(=O)N[C@H](C(N)=O)[C@@H](C)O)C(C)C [TP704] (H-H[Aib]QGTFTSDYSKYLDARAAK([AEEA-AEEA-γGlu-C18 diacid])EFVQWL[Met(O2)]DT-NH2; N-terminus assumed) | 0.27 nM | 0.7 | < 5 nM | < 5 nM | – |

Results, then the molecule that gave them:

| EC50 (human GCGR; [1]) | hGCGR/hGLP1R (hTone) (human GCGR) | EC50 (human GCGR; [2]) | EC50 (human GLP1R; [3]) | EC50 (human GLP1R; [4]) | SMILES |
| --- | --- | --- | --- | --- | --- |
| – | 0.6 | < 5 nM | < 5 nM | – | CC(C)C[C@H](NC(=O)[C@H](Cc1ccc(O)cc1)NC(=O)[C@H](CCCCN)NC(=O)[C@H](CO)NC(=O)[C@H](Cc1ccc(O)cc1)NC(=O)[C@H](CC(=O)O)NC(=O)[C@H](CO)NC(=O)[C@@H](NC(=O)[C@H](Cc1ccccc1)NC(=O)[C@@H](NC(=O)CNC(=O)[C@H](CCC(N)=O)NC(=O)[C@](C)(CO)NC(=O)[C@@H](N)Cc1c[nH]cn1)[C@@H](C)O)[C@@H](C)O)C(=O)N[C@@H](CC(=O)O)C(=O)N[C@@H](C)C(=O)N[C@@H](CCCNC(=N)N)C(=O)N[C@@H](C)C(=O)N[C@@H](C)C(=O)N[C@@H](CCC(N)=O)C(=O)N[C@@H](CCCCNC(=O)COCCOCCNC(=O)COCCOCCNC(=O)CC[C@H](NC(=O)CCCCCCCCCCCCCCC(=O)O)C(=O)O)C(=O)N[C@@H](Cc1ccccc1)C(=O)N[C@H](C(=O)N[C@@H](CCC(N)=O)C(=O)N[C@@H](Cc1c[nH]c2ccccc12)C(=O)N[C@@H](CC(C)C)C(=O)N[C@@H](CCS(C)(=O)=O)C(=O)N[C@@](C)(CC(=O)O)C(=O)N[C@H](C(N)=O)[C@@H](C)O)C(C)C [TP615] (H-H[αMeS]QGTFTSDYSKYLDARAAQK([AEEA-AEEA-γGlu-C16 diacid])FVQWL[Met(O2)][αMeD]T-NH2) |
| – | 3.1 | < 5 nM | < 5 nM | 0.26 nM | CC(C)C[C@H](NC(=O)[C@H](Cc1ccc(O)cc1)NC(=O)[C@H](CCCCN)NC(=O)[C@H](CO)NC(=O)[C@H](Cc1ccc(O)cc1)NC(=O)[C@H](CC(=O)O)NC(=O)[C@H](CO)NC(=O)[C@@H](NC(=O)[C@H](Cc1ccccc1)NC(=O)[C@@H](NC(=O)CNC(=O)[C@H](CCC(N)=O)NC(=O)C(C)(C)NC(=O)[C@@H](N)Cc1c[nH]cn1)[C@@H](C)O)[C@@H](C)O)C(=O)N[C@@H](CC(=O)O)C(=O)N[C@@H](C)C(=O)N[C@@H](CCCNC(=N)N)C(=O)N[C@@H](C)C(=O)N[C@@H](C)C(=O)N[C@@H](CCCCNC(=O)COCCOCCNC(=O)COCCOCCNC(=O)COCCOCCNC(=O)CC[C@H](NC(=O)CCCCCCCCCCCCCCCCC(=O)O)C(=O)O)C(=O)N[C@@H](CC(=O)O)C(=O)N[C@@H](Cc1ccccc1)C(=O)N[C@H](C(=O)N[C@@H](CCC(N)=O)C(=O)N[C@@H](Cc1c[nH]c2ccccc12)C(=O)N[C@@H](CC(C)C)C(=O)N[C@@H](CCS(C)(=O)=O)C(=O)N[C@@H](CC(=O)O)C(=O)N[C@H](C(N)=O)[C@@H](C)O)C(C)C [TP676] (H-H[Aib]QGTFTSDYSKYLDARAAK([AEEA-AEEA-AEEA-γGlu-C18 diacid])DFVQWL[Met(O2)]DT-NH2; N-terminus assumed) |
| 4.95 nM | 1.9 | < 5 nM | < 5 nM | – | CC(C)C[C@H](NC(=O)[C@H](Cc1ccc(O)cc1)NC(=O)[C@H](CCCCN)NC(=O)[C@H](CO)NC(=O)[C@H](Cc1ccc(O)cc1)NC(=O)[C@H](CC(=O)O)NC(=O)[C@H](CO)NC(=O)[C@@H](NC(=O)[C@H](Cc1ccccc1)NC(=O)[C@@H](NC(=O)CNC(=O)[C@H](CCC(N)=O)NC(=O)C(C)(C)NC(=O)[C@@H](N)Cc1c[nH]cn1)[C@@H](C)O)[C@@H](C)O)C(=O)N[C@@H](CC(=O)O)C(=O)N[C@@H](C)C(=O)N[C@@H](CCCNC(=N)N)C(=O)N[C@@H](C)C(=O)N[C@@H](C)C(=O)N[C@@H](CCCCNC(=O)COCCOCCNC(=O)COCCOCCNC(=O)CC[C@H](NC(=O)CCCCCCCCCCCCCCCCCCC(=O)O)C(=O)O)C(=O)N[C@@](C)(CC(=O)O)C(=O)N[C@@H](Cc1ccccc1)C(=O)N[C@H](C(=O)N[C@@H](CCC(N)=O)C(=O)N[C@@H](Cc1c[nH]c2ccccc12)C(=O)N[C@@H](CC(C)C)C(=O)N[C@@H](CCS(C)(=O)=O)C(=O)N[C@@H](CC(=O)O)C(=O)N[C@H](C(N)=O)[C@@H](C)O)C(C)C [TP594] (H-H[Aib]QGTFTSDYSKYLDARAAK([AEEA-AEEA-γGlu-C20 diacid])[αMeD]FVQWL[Met(O2)]DT-NH2; N-terminus assumed) |
